Source: ChEMBL document CHEMBL3867461, “Design, synthesis, and evaluation of (2S,4R)-Ketoconazole sulfonamide analogs as potential treatments for Metabolic Syndrome” (Bioorg Med Chem Lett, 2016)

Tests used:
Type in all cases: ADME, organism-based, Cavia porcellus
Conditions in all cases: in vivo
[1] = Cmax in Hartley guinea pig at 1 mg/kg, iv administered as single dose; parameters: dose 1 mg/kg, route intravenous
[2] = Tmax in Hartley guinea pig at 1 mg/kg, iv administered as single dose
[3] = Volume of distribution in Hartley guinea pig at 1 mg/kg, iv administered as single dose
[4] = AUC (0 to infinity) in Hartley guinea pig at 1 mg/kg, iv administered as single dose; parameters: dose 1 mg/kg, route intravenous, time infinity
[5] = Cmax in Hartley guinea pig at 10 mg/kg, po administered as single dose; parameters: dose 10 mg/kg, route oral
[6] = Tmax in Hartley guinea pig at 10 mg/kg, po administered as single dose
[7] = AUC (0 to infinity) in Hartley guinea pig at 10 mg/kg, po administered as single dose; parameters: dose 10 mg/kg, route oral, time infinity
[8] = Oral bioavailability in Hartley guinea pig at 10 mg/kg

Cmax [1]	Tmax [2]	Vd [3]	AUC(0-inf) [4]	Cmax [5]	Tmax [6]	AUC(0-inf) [7]	bioavailability [8]	Structure (SMILES)
2090 ng/mL	4.8 min	2.5 L/kg	1160 ng·h/mL	1970 ng/mL	40.2 min	4600 ng·h/mL	39.5%	N#CCS(=O)(=O)N1CCN(c2ccc(OC[C@@H]3CO[C@@](Cn4ccnc4)(c4ccc(Cl)cc4Cl)O3)cc2)CC1
446 ng/mL	6 min	4.4 L/kg	560 ng·h/mL	710 ng/mL	70.2 min	3710 ng·h/mL	61.4%	CCS(=O)(=O)N1CCN(c2ccc(OC[C@@H]3CO[C@@](Cn4ccnc4)(c4ccc(Cl)cc4Cl)O3)cc2)CC1
514 ng/mL	4.8 min	2.9 L/kg	715 ng·h/mL	1560 ng/mL	90 min	7580 ng·h/mL	98.5%	O=S(=O)(C1CC1)N1CCN(c2ccc(OC[C@@H]3CO[C@@](Cn4ccnc4)(c4ccc(Cl)cc4Cl)O3)cc2)CC1
534 ng/mL	11.4 min	3 L/kg	547 ng·h/mL	358 ng/mL	40.2 min	571 ng·h/mL	10.4%	CC(C)S(=O)(=O)N1CCN(c2ccc(OC[C@@H]3CO[C@@](Cn4ccnc4)(c4ccc(Cl)cc4Cl)O3)cc2)CC1
